In patent US10982174B2, “Synergistic surfactant blends” (STEPAN COMPANY, priority 2012, dated 2021):

Key:
Assay type in all cases: physicochemical
[1] = Appearance / solubility of surfactant blends, neat and diluted with deionized water; settings: SLS/Quat (molar) 0:1
Procedure: All of the surfactant blends tested are prepared at the designated molar ratios without any pH adjustment. Dilutions are made using deionized water to the desired actives level. Actives amounts are wt. % unless indicated otherwise. Appearances are reported at ambient temperature for samples prepared within the last 24 h.

[2] = Interfacial tension (IFT), pendant drop tensiometer, against light mineral oil; settings: individual surfactant, ambient temperature, in mN/m (unit assumed)
Procedure: Interfacial tension is measured by any suitable method. […] The expected IFT value for a blend is calculated based on ideal mixing (non-synergistic) using the active component in each blend. The equation used is: Expected IFT=X·IFTA+(1−X)·IFTB where X is the actives % of Component A, IFTA is the IFT of Component A, and IFTB is the IFT of Component B.
If the measured IFT for a blend is less than the expected IFT, the blend is synergistic; if the measured IFT for a blend is greater than the expected IFT, the blend is antagonistic.
Interfacial tension (IFT) of all the individual components and their blends is measured at a given % active against light mineral oil at ambient temperature using a Kruss DSA-20 pendent drop tensiometer.

[3] = Critical micelle concentration (CMC) and beta parameter (synergy)
Procedure: Synergy can also be evaluated with respect to a blend's beta parameter (β), which can be calculated from the measured critical micelle concentration. Suitable methods for calculating β have been described previously (see, e.g., U.S. Pat. No. 5,360,571, the teachings of which are incorporated herein by reference).
Conveniently, the critical micelle concentration of a blend is measured at dilute concentrations in deionized water with pH adjusted to be within the range of 6 to 7. Critical micelle concentration generally refers to the minimum concentration of surfactant (in mg/L) needed to support micelle formation. The measurement can be performed, for instance, using a Krüss K12 tensiometer at 25° C. Once the critical micelle concentration is measured, the value of β can be found from:
where X is the total mole fraction of Surfactant 1 in the mixed micelles; α is the mole fraction of Surfactant 1 in solution; C1, C2, and C12 are the critical micelle concentrations of Surfactant 1, Surfactant 2, and their mixture; and β is the interaction parameter.
A negative value of β indicates synergy, while a positive value of β indicates antagonism, and values close to zero indicate little or no synergy.
The critical micelle concentration (CMC) of a blend is measured at a diluted concentration in deionized water with pH adjusted to 6-7. The measurement is done at 25° C. using a Kruss K100 tensiometer. The synergy of the blends, indicated by the beta parameter, is calculated based on the CMC data using the equation, β=[In(αA12/XA1)]/(1−X)^2 in which α is the mole fraction of the anionic surfactant in solution, X is the mole fraction of the anionic surfactant in mixed micelles, A1 is the critical micelle concentration of the anionic surfactant, and A12 is the critical micelle concentration of the blend.

[4] = deionized water, pH 6-7, 25° C.

Row | Appearance 0.01% actives [1] | Appearance 0.2% actives [1] | Appearance concentrate [1] | SMILES | IFT (0.1% actives) [2] | other results
1 | clear | clear | solid | C=CCCCCCCCC(=O)NCCC[N+](C)(C)C [C10-18, C10 DMAPA Quat] |  | 
2 |  |  |  | C=CCCCCCCCC[N+](C)(C)C [C10-42, C10 Amine DMS Quat] | 42.0 | 
3 |  |  |  | C=CCCCCCCCC(=O)OC(CCCCCCCC(=O)[O-])CS(=O)(=O)[O-].[Na+].[Na+] (centres unmarked) [C10-32, C10 UFA SLA] | 25.9 | 
4 |  |  |  | C=CCCCCCCCC(=O)OCC[N+](C)(C)C [C10-7, C10 DMEA Ester Quat] |  | Surface tension at CMC (mN/m) [3]: 41.1 mN/m; CMC (mg/L) [3, 4]: 342.6 mg/L; CMC (mol/L) [3, 4]: 0.000932 mol/L
5 | clear | clear | solid | CC/C=C/CCCCCCCC(=O)NCCC[N+](C)(C)C [C12-18] |  | 
